# Experimental data from paper PMC10763615, “Identification and engineering of potent cyclic peptides with selective or promiscuous binding through biochemical profiling and bioinformatic data analysis” (RSC Chemical Biology, 2023).
# pKd: −log10 of the molar value.
# Experiments:
# [1] = target: T1, FGF-R3C ECD (Homo sapiens, UniProt P22607); assay: biochemical
# T1 sequence (P22607 23-375 limits assumed): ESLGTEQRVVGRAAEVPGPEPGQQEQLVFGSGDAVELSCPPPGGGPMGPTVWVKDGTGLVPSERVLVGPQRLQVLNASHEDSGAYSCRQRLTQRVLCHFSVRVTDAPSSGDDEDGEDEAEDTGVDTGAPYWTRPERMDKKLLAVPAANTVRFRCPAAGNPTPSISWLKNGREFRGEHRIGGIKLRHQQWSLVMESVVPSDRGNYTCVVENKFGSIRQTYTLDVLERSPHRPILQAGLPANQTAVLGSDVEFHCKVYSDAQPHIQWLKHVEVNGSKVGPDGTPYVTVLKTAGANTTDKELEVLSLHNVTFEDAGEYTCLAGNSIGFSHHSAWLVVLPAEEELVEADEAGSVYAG
# Method: (§1) KD affinity binding measurements were obtained by biolayer interferometry (BLI) instruments (Fortebio Octet HTX, or Sartorius Octet RH16 using either 8 or 16 channel mode.
# (§2) For single concentration binding experiments, 50 μM peptide stocks in folding buffer were diluted 1:50 in mRNA display selection buffer (PBS pH7.4 supplemented with 0.05% Tween-20 and 0.01% BSA) in either a 96 well black plate, or a 384 well tilted bottom microplate (ForteBio). Biotinylated FGF-R protein was loaded onto Streptavidin-functionalised biosensors (ForteBio) and immersed into ~1 μM peptide to obtain association kinetics curves. Dissociation kinetics curves were obtained by subsequent immersion of ligand-associated loaded sensors into a 1:50 dilution of folding buffer in mRNA display selection buffer. Fitted KD data was adjusted for concentration as determined by UPLC-CAD.
# (§3) For accurate multi-concentration KD determination, dilution series of each peptide were made, and association and dissociation kinetics curves were obtained as above for each concentration to fit a multi-point KD binding model. Data collection and analysis was performed using the Octet Instrument Control […]
# (§4) concentration assay kinetics curves shown in supplementary Figure S 19-24.
# [2] = target: T2, FGF-R1C ECD (Homo sapiens, UniProt P11362); assay: biochemical
# T2 sequence (P11362 22-376 limits assumed): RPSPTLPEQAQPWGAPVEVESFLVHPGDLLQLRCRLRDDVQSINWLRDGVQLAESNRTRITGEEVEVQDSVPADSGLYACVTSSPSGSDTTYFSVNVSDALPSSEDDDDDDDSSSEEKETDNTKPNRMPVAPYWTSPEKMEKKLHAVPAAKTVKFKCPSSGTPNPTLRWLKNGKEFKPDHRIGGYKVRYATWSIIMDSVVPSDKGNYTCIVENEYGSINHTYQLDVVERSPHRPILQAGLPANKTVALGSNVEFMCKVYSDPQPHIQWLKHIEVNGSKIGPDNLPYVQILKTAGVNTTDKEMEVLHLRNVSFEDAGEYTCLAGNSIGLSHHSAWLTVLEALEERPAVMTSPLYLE
# Method: as §1, §2, §3, §4
# [3] = target: T3, FGF-R4 ECD (Homo sapiens, UniProt P22455); assay: multi-concentration BLI of purified peptides; type: binding; conditions: purified trimer-18 library peptides
# T3 construct: DNA constructs for the extracellular domain (ECD) of human FGF-; HPC4 (C); made in house; host or cells: HEK 293-6E
# T3 sequence (P22455 22-369 limits assumed): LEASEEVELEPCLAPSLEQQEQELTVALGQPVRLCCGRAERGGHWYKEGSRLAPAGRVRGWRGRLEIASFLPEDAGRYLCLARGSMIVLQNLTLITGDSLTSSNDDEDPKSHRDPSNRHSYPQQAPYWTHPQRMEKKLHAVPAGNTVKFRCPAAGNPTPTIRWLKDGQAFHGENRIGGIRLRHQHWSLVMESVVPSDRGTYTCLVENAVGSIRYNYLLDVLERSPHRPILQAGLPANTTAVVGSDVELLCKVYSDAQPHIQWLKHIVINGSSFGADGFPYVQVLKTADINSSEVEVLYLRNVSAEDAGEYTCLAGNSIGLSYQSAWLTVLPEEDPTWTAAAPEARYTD
# Method: as §1, §2, §3, §4
Compound,pKd [1],pKd [2],pKd [3],R4 KD (nM) [3]
CSCC[C@H](NC(C)=O)C(=O)N[C@H]1CSSC[C@@H](C(=O)NCC(=O)N[C@@H](CO)C(=O)NCC(=O)N[C@@H](CO)C(=O)N[C@@H](CC(=O)O)C(=O)N[C@@H](Cc2ccc(O)cc2)C(=O)N[C@@H](CCCCN)C(=O)N[C@@H](CC(=O)O)C(=O)N[C@@H](CC(=O)O)C(=O)N[C@@H](CC(=O)O)C(=O)N[C@@H](CC(=O)O)C(=O)N[C@@H](CCCCN)C(N)=O)NC(=O)[C@H](C)NC(=O)[C@H](CCCCN)NC(=O)[C@H](CCCNC(=N)N)NC(=O)[C@H](Cc2c[nH]c3ccccc23)NC(=O)[C@H](CC(C)C)NC(=O)[C@H](CC(C)C)NC(=O)[C@H](Cc2ccc(O)cc2)NC(=O)[C@H](Cc2ccc(O)cc2)NC(=O)[C@H](Cc2ccccc2)NC(=O)[C@H](CC(C)C)NC(=O)[C@H](CC(=O)O)NC(=O)[C@H](CC(N)=O)NC1=O [4.18],< 6.00,< 6.00,6.22,–
CC[C@H](C)[C@@H]1NC(=O)[C@H](Cc2ccccc2)NC(=O)[C@H](CCCCN)NC(=O)[C@H](CC(N)=O)NC(=O)[C@H](Cc2ccc(O)cc2)NC(=O)[C@@H](NC(=O)[C@H](CCSC)NC(C)=O)CSSC[C@@H](C(=O)NCC(=O)N[C@@H](CO)C(=O)NCC(=O)N[C@@H](CO)C(=O)N[C@@H](CC(=O)O)C(=O)N[C@@H](Cc2ccc(O)cc2)C(=O)N[C@@H](CCCCN)C(=O)N[C@@H](CC(=O)O)C(=O)N[C@@H](CC(=O)O)C(=O)N[C@@H](CC(=O)O)C(=O)N[C@@H](CC(=O)O)C(=O)N[C@@H](CCCCN)C(N)=O)NC(=O)[C@H](Cc2ccc(O)cc2)NC(=O)[C@H](CC(C)C)NC(=O)[C@H](C(C)C)NC(=O)[C@H](CCCCN)NC(=O)[C@H](Cc2ccc(O)cc2)NC(=O)[C@H](CC(C)C)NC(=O)[C@H]([C@@H](C)O)NC1=O [4.19],< 6.00,< 6.00,6.10,–
CSCC[C@H](NC(C)=O)C(=O)N[C@H]1CSSC[C@@H](C(=O)NCC(=O)N[C@@H](CO)C(=O)NCC(=O)N[C@@H](CO)C(=O)N[C@@H](CC(=O)O)C(=O)N[C@@H](Cc2ccc(O)cc2)C(=O)N[C@@H](CCCCN)C(=O)N[C@@H](CC(=O)O)C(=O)N[C@@H](CC(=O)O)C(=O)N[C@@H](CC(=O)O)C(=O)N[C@@H](CC(=O)O)C(=O)N[C@@H](CCCCN)C(N)=O)NC(=O)[C@H](Cc2c[nH]c3ccccc23)NC(=O)[C@H](CC(C)C)NC(=O)[C@H](CC(C)C)NC(=O)[C@H](Cc2ccc(O)cc2)NC(=O)[C@H](Cc2ccc(O)cc2)NC(=O)[C@H](Cc2ccccc2)NC(=O)[C@H](CC(C)C)NC(=O)[C@H](C(C)C)NC(=O)[C@H](CCCCN)NC(=O)[C@H](CCCCN)NC(=O)[C@H](CC(N)=O)NC(=O)[C@H](CCC(=O)O)NC1=O [4.20],< 6.00,< 6.00,6.49,–
CC[C@H](C)[C@@H]1NC(=O)[C@H](Cc2c[nH]c3ccccc23)NC(=O)[C@H](Cc2ccc(O)cc2)NC(=O)[C@H](CCCCN)NC(=O)[C@H](C(C)C)NC(=O)[C@H](Cc2c[nH]c3ccccc23)NC(=O)[C@H](Cc2ccc(O)cc2)NC(=O)[C@H](CCCCN)NC(=O)[C@H](CC(=O)O)NC(=O)[C@@H](NC(=O)[C@H](CCSC)NC(C)=O)CSSC[C@@H](C(=O)NCC(=O)N[C@@H](CO)C(=O)NCC(=O)N[C@@H](CO)C(=O)N[C@@H](CC(=O)O)C(=O)N[C@@H](Cc2ccc(O)cc2)C(=O)N[C@@H](CCCCN)C(=O)N[C@@H](CC(=O)O)C(=O)N[C@@H](CC(=O)O)C(=O)N[C@@H](CC(=O)O)C(=O)N[C@@H](CC(=O)O)C(=O)N[C@@H](CCCCN)C(N)=O)NC(=O)[C@H](CCCNC(=N)N)NC(=O)[C@H](Cc2c[nH]c3ccccc23)NC(=O)[C@H](C)NC1=O [4.21],6.29,6.11,6.39,–
CSCC[C@H](NC(C)=O)C(=O)N[C@H]1CSSC[C@@H](C(=O)NCC(=O)N[C@@H](CO)C(=O)NCC(=O)N[C@@H](CO)C(=O)N[C@@H](CC(=O)O)C(=O)N[C@@H](Cc2ccc(O)cc2)C(=O)N[C@@H](CCCCN)C(=O)N[C@@H](CC(=O)O)C(=O)N[C@@H](CC(=O)O)C(=O)N[C@@H](CC(=O)O)C(=O)N[C@@H](CC(=O)O)C(=O)N[C@@H](CCCCN)C(N)=O)NC(=O)[C@H](CC(=O)O)NC(=O)[C@H](CCCCN)NC(=O)[C@H](C(C)C)NC(=O)[C@H](Cc2c[nH]c3ccccc23)NC(=O)[C@H](Cc2ccccc2)NC(=O)[C@H](C(C)C)NC(=O)[C@H](Cc2c[nH]cn2)NC(=O)[C@H](CC(C)C)NC(=O)[C@H](CCCCN)NC(=O)[C@H](CCCCN)NC(=O)[C@H](Cc2c[nH]c3ccccc23)NC(=O)[C@H](Cc2ccccc2)NC1=O [4.22],7.92,8.70,> 9.00,sub-nanomolar
CSCC[C@H](NC(C)=O)C(=O)N[C@H]1CSSC[C@@H](C(=O)NCC(=O)N[C@@H](CO)C(=O)NCC(=O)N[C@@H](CO)C(=O)N[C@@H](CC(=O)O)C(=O)N[C@@H](Cc2ccc(O)cc2)C(=O)N[C@@H](CCCCN)C(=O)N[C@@H](CC(=O)O)C(=O)N[C@@H](CC(=O)O)C(=O)N[C@@H](CC(=O)O)C(=O)N[C@@H](CC(=O)O)C(=O)N[C@@H](CCCCN)C(N)=O)NC(=O)[C@H](CCCNC(=N)N)NC(=O)[C@H](CCCNC(=N)N)NC(=O)[C@H](Cc2c[nH]cn2)NC(=O)[C@H](CO)NC(=O)[C@H](CC(C)C)NC(=O)[C@H](CC(C)C)NC(=O)[C@H](Cc2ccc(O)cc2)NC(=O)[C@H](Cc2ccc(O)cc2)NC(=O)[C@H](Cc2ccc(O)cc2)NC(=O)[C@H](CC(C)C)NC(=O)[C@H](Cc2c[nH]cn2)NC(=O)[C@H](CCC(=O)O)NC1=O [4.23],< 6.00,< 6.00,8.52,–
CSCC[C@H](NC(C)=O)C(=O)N[C@H]1CSSC[C@@H](C(=O)NCC(=O)N[C@@H](CO)C(=O)NCC(=O)N[C@@H](CO)C(=O)N[C@@H](CC(=O)O)C(=O)N[C@@H](Cc2ccc(O)cc2)C(=O)N[C@@H](CCCCN)C(=O)N[C@@H](CC(=O)O)C(=O)N[C@@H](CC(=O)O)C(=O)N[C@@H](CC(=O)O)C(=O)N[C@@H](CC(=O)O)C(=O)N[C@@H](CCCCN)C(N)=O)NC(=O)[C@@H]2CCCN2C(=O)[C@H](CCCNC(=N)N)NC(=O)[C@H](Cc2c[nH]c3ccccc23)NC(=O)[C@@H]2CCCN2C(=O)[C@H](CCC(=O)O)NC(=O)[C@H](Cc2c[nH]cn2)NC(=O)[C@H](Cc2c[nH]c3ccccc23)NC(=O)[C@H](Cc2ccc(O)cc2)NC(=O)[C@H](C)NC(=O)[C@H](CCCCN)NC(=O)[C@H]([C@@H](C)O)NC(=O)[C@H](Cc2ccc(O)cc2)NC1=O [4.24],< 6.00,< 6.00,< 6.00,–
CSCC[C@H](NC(C)=O)C(=O)N[C@H]1CSSC[C@@H](C(=O)NCC(=O)N[C@@H](CO)C(=O)NCC(=O)N[C@@H](CO)C(=O)N[C@@H](CC(=O)O)C(=O)N[C@@H](Cc2ccc(O)cc2)C(=O)N[C@@H](CCCCN)C(=O)N[C@@H](CC(=O)O)C(=O)N[C@@H](CC(=O)O)C(=O)N[C@@H](CC(=O)O)C(=O)N[C@@H](CC(=O)O)C(=O)N[C@@H](CCCCN)C(N)=O)NC(=O)[C@H](CCC(N)=O)NC(=O)[C@H](CCCCN)NC(=O)[C@H](Cc2ccccc2)NC(=O)[C@H](CC(C)C)NC(=O)[C@H](CC(C)C)NC(=O)[C@H](Cc2ccc(O)cc2)NC(=O)[C@H](Cc2ccc(O)cc2)NC(=O)[C@H](Cc2ccc(O)cc2)NC(=O)[C@H](CC(C)C)NC(=O)[C@H](Cc2c[nH]cn2)NC(=O)[C@H](CCCCN)NC(=O)[C@H](CC(N)=O)NC1=O [4.25],< 6.00,< 6.00,8.52,–
